Measurements from patent US8466291B2, “1,5-dideoxy-1,5-imino-D-glucitol compounds” (Academia Sinica, priority 2008, dated 2013).

Legend:
[1] = target: T1, human Hex B (FLAG-HexB) (Homo sapiens, UniProt P07686); experiment: Immunoprecipitation / streptavidin pull-down and Western blot from 293T/FLAG-HexB cell lysate; type: binding; details: 200 nM, room temperature 10 min
T1 construct: FLAG (N); expressed in transfected cells
T1 sequence (P07686 122-556): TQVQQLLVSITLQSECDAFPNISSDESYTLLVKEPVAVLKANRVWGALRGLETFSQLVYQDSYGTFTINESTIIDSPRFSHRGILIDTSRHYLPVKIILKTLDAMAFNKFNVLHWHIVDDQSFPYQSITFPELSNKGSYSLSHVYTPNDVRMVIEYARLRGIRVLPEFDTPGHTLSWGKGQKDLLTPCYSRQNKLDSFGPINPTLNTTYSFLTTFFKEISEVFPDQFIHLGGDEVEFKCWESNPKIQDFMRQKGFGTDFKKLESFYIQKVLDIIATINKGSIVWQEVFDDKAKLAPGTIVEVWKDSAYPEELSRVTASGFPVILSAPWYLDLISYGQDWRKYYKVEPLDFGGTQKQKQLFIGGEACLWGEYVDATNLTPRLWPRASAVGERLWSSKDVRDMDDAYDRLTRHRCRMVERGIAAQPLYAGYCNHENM
Method: (§1) A DNA fragment encoding human Hex B was amplified by PCR and cloned into pCMV-Tag 2B vector (Stratagene) to produce FLAG-tagged HexB expression plasmid (pFLAG-HexB). This plasmid was introduced into 293T cells to establish a cell line stably expressing FLAG-HexB. Briefly, 293T cells were maintained in Dulbecco's modified Eagle's medium (DMEM) supplemented with 10% (by volumn) heat inactivated fetal bovine serum (FBS), 2 mM glutamine, 100 units/mL penicillin and 100 μg/mL streptomycin at 37° C. in a 5% CO2 atmosphere. These cells were transfected with expression plasmid pFLAG-HexB and plasmid pBabe-puro (carrying a puromycin resistance gene) at a molar ratio of 30-40:1. 8 hours later, the transfected cells were fed with fresh medium and incubated for 16 h. These cells were then cultured in puromycin-containing (2 μg/mL) medium for 2-3 weeks to screen for puromycin-resistant clones.
Binding of Compound 5 to FLAG-HexB were further confirmed by immuno-precipitation and Westernblot assays. The 293T/FLAG-HexB cells were lysed with a lysis buffer containing 1% NP-40, 10 mM Tris-HCl at pH 7.4, 150 mM NaCl, 2 mM EDTA, 1 mM phenylmethylsulfonyl fluoride, and a proteinase inhibitor cocktail (Sigma), and the cell lysate was then incubated at room temperature for 10 min in the presence or absence of Compound 5 (200 nM). […]

[2] = target: T1, human Hex B (FLAG-HexB); experiment: In situ immunostaining of Compound 5 and FLAG-HexB in 293T/FLAG-HexB cells; type: cell-based; details: confocal immunofluorescence, anti-FLAG and anti-biotin antibodies
Method: as §1
Binding of Compound 5 to HexB was first examined by in situ immunostaining as follows. 293T/FLAG-HexB cells were grown on glass coverslips in the presence of biotin-conjugated Compound 5 and fixed in 4% paraformaldehyde for 15 min. […]

[3] = target: Bacteroids fragilis O-GlcNAcase (Bacteroides fragilis, UniProt Q5L8V6); experiment: Michaelis-Menten/Lineweaver-Burk kinetic inhibition of O-GlcNAcase with 4MU-NAG substrate; type: biochemical
Method: Bacteroids fragilis O-GlcNAcase, which is highly homologous to human O-GlcNAcase, was prepared as follows. Based on the genome sequence of B. fragilis (NCTC 9343) as disclosed in GenBank accession no. CR626927 (Oct. 23, 2008), a DNA fragment encoding the B. fragilis O-GlcNAcse was amplified via polymerase chain reaction (PCR), using the primers of: 5′-[…]-3′ (SEQ ID NO:1) (forward primer) and 5′-[…]-3′ (SEQ ID NO:2) (reverse primer). The PCR product was cloned into pGEM-T Easy vector (Promega) via cloning sites Nde1 and Xho1 and then subcloned into pET21b vector to produce expression plasmid pOGA, which encodes a fusion protein including O-GlcNAcase and a His6 tag at the C-terminus
Plasmid pOGA was transformed into E. coli BL21 (DE3) cells and a positive transformant was cultured in Luria-Bertani (LB) medium with ampicillin (100 μg/mL) overnight. The E. coli culture, transferred to fresh LB medium, was incubated at 37° C. and, when A600 of the culture reached 0.6, isopropyl-β-D-thiogalactopyranoside (final conc: 250 μM) was added to induce expression of O-GlcNAcse. The induced cells were further cultured at 16° C. overnight, harvested, and disrupted to produce a cell lysate. Upon centrifugation, the supernatant thus obtained was loaded onto a nickel-affinity column. After elution, a fraction containing O-GlcNAcse was collected and the enzyme contained therein was further purified by gel filtration using a Superdex 6 column. See Dennis et al., Nat Struct Mol Biol 2006, 13: 365-71. The purified protein was concentrated using a 10 kDa-cutoff concentrator and dialyzed against 20 mM HEPES (pH 7.5).
The reaction conditions for each enzyme are shown below:
O-GlcNAcase: reaction mixture (0.5 nM O-GlcNAcase (200 μL) in 50 mM citric acid, 100 mM NaCl, 0.1% BSA, 0.05-1.5 mM substrate, pH 4.25) was incubated at 30° C. for 25 minutes. The enzyme activity at different time points was determined by measuring the levels of the fluorescent signals (excitation wavelength: 360 nm; emission wavelength: 460 nm) released from 4-methylumbelliferone, a product of the enzyme reaction.
In these reactions, the substrate concentrations were three to five fold of the concentration used for determining KM (absent compounds) and the ratio between the enzyme and the compound was 0.1-0.5 nM to 0.3 nM-200 uM. The data thus obtained were analyzed by the Lineweaver-Burk plot. The K1 values were determined by the double reciprocal plot (1/V vs. 1/[S]). More specifically, the Km values for each enzyme in the presence of one of the test compounds first determined and these values were further plotted in view of the concentrations of the compound. K1 was determined by calculating the negative value of the resulting x-intercept. The selectivity of each compound was calculated by the formula: K1 O-GlcNAcase/K1 Hex B.

Sequence of Bacteroids fragilis O-GlcNAcase (Q5L8V6 entry or part of it): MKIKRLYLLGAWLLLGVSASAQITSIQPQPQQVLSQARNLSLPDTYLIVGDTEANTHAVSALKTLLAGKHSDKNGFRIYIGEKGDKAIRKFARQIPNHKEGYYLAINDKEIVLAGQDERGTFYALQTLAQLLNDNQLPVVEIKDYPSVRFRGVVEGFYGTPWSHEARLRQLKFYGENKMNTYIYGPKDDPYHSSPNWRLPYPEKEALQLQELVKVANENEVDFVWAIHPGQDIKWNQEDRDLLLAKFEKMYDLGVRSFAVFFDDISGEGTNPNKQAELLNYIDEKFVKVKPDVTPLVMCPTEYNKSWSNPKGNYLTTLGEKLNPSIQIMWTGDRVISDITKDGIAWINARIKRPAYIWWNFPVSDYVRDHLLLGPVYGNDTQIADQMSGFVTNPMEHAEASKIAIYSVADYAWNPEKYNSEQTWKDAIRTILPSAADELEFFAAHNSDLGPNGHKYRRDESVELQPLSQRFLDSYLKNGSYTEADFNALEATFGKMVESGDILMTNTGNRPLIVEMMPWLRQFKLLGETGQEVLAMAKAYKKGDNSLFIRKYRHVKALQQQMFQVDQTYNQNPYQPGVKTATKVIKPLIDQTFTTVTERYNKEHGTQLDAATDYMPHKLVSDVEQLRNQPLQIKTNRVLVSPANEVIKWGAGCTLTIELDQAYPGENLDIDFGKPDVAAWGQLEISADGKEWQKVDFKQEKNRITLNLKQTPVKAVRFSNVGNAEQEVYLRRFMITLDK

CC(=O)NC1CN(CCCCCCCNC(=O)CCCCC2SCC3NC(=O)NC32)C(CO)C(O)C1O (stereo not shown) [Compound 5]
association of FLAG-HexB with compound (streptavidin-agarose beads) [1]: FLAG-HexB protein was attached to the streptavidin-agarose beads | co-localization of FLAG-HexB and compound [2]: co-localized in the cytoplasm | Ki [3]: 69.6 ± 1.77 µM | Selectivity (KI O-GlcNAcase/KI HEX) ([3]; Bacteroids fragilis O-GlcNAcase over human HEX B, Table 1): 2,600
